Laboratory results taken from PubChem BioAssay AID328 (DTP/NCI, 2004).
Inconclusive results and toxic doses are left out. How the source made its calls: active means survival T/C of 150% or more; inactive means T/C below 125% in these data.

Test system: BDF1 mice, P388 leukemia ip, median survival T/C
Test: NCI In Vivo Anticancer Drug Screen. Data for tumor model P388 Leukemia (intraperitoneal) in B6D2F1 (BDF1) mice
Conditions: endpoint: median survival time, higher = longer survival
Summary of the method: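 Compound-treated tumour-bearing mice were compared with vehicle-treated controls. Survival was recorded, and the value is the treated-group measurement divided by the control-group measurement (T/C).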

[1] = dose: 50.0 mg/kg/injection, schedule: Q01DX009 (ip), vehicle: saline with Tween-80
[2] = dose: 100.0 mg/kg/injection, schedule: Q01DX009 (ip), vehicle: saline with Tween-80
[3] = dose: 100.0 mg/kg/injection, schedule: Q04DX003 (ip), vehicle: saline with Tween-80
[4] = dose: 200.0 mg/kg/injection, schedule: Q01DX009 (ip), vehicle: saline with Tween-80
[5] = dose: 200.0 mg/kg/injection, schedule: Q04DX003 (ip), vehicle: saline with Tween-80
[6] = dose: 400.0 mg/kg/injection, schedule: Q04DX003 (ip), vehicle: saline with Tween-80
[7] = dose: 25.0 mg/kg/injection, schedule: Q01DX009 (ip), vehicle: saline with Tween-80
[8] = dose: 25.0 mg/kg/injection, schedule: Q04DX003 (ip), vehicle: saline with Tween-80
[9] = dose: 100.0 mg/kg/injection, schedule: Q01DX009 (ip), vehicle: saline
[10] = dose: 200.0 mg/kg/injection, schedule: Q01DX009 (ip), vehicle: saline
[11] = dose: 50.0 mg/kg/injection, schedule: Q04DX003 (ip), vehicle: saline with Tween-80

Measured: T/C

CC(=O)c1ccccc1[N+](=O)[O-]
inactive: [1] 95 % of control | [2] 100 % of control | [3] 95 % of control | [4] 86 % of control | [5] 90 % of control | [6] 100 % of control

COc1ccccc1NC(N)=O
inactive: [3] 105 % of control | [5] 105 % of control | [6] 100 % of control

CC(=O)CC(C)=O.CC(=O)CC(C)=O.[Co]
inactive: dose: 6.25 mg/kg/injection, schedule: Q01DX009 (ip), vehicle: saline with Tween-80 96 % of control | dose: 6.25 mg/kg/injection, schedule: Q04DX003 (ip), vehicle: saline with Tween-80 88 % of control | dose: 12.5 mg/kg/injection, schedule: Q01DX009 (ip), vehicle: saline with Tween-80 112 % of control | dose: 12.5 mg/kg/injection, schedule: Q04DX003 (ip), vehicle: saline with Tween-80 92 % of control | [7] 120 % of control | [8] 92 % of control

C[C@]12CC[C@H]3[C@@H](CC[C@]4(O)C[C@@H](O)CC[C@]34/C=N/O)[C@@]1(O)CC[C@@H]2C1=COC(=O)C1
inactive: dose: 1.87 mg/kg/injection, schedule: Q01DX010 (ip), vehicle: carboxymethylcellulose (CMC) 94 % of control | dose: 3.75 mg/kg/injection, schedule: Q01DX010 (ip), vehicle: carboxymethylcellulose (CMC) 100 % of control | dose: 7.5 mg/kg/injection, schedule: Q01DX010 (ip), vehicle: carboxymethylcellulose (CMC) 111 % of control | dose: 15.0 mg/kg/injection, schedule: Q01DX010 (ip), vehicle: carboxymethylcellulose (CMC) 116 % of control | dose: 30.0 mg/kg/injection, schedule: Q01DX010 (ip), vehicle: carboxymethylcellulose (CMC) 111 % of control | dose: 60.0 mg/kg/injection, schedule: Q01DX010 (ip), vehicle: carboxymethylcellulose (CMC) 122 % of control

CCc1oc(=O)c(Cc2c(O)cc(O)c3c2OC(c2ccccc2)CC3=O)c(O)c1C (configuration not stated)
inactive: dose: 4.0 mg/kg/injection, schedule: Q01DX009 (ip), vehicle: Klucel (hydroxypropylcellulose) (HPC) 95 % of control | dose: 8.0 mg/kg/injection, schedule: Q01DX009 (ip), vehicle: Klucel (hydroxypropylcellulose) (HPC) 100 % of control | dose: 16.0 mg/kg/injection, schedule: Q01DX009 (ip), vehicle: Klucel (hydroxypropylcellulose) (HPC) 93 % of control | dose: 32.0 mg/kg/injection, schedule: Q01DX009 (ip), vehicle: Klucel (hydroxypropylcellulose) (HPC) 93 % of control

O=C(O)C(NC1CCCCC1)c1ccccc1 (configuration not stated)
inactive: dose: 50.0 mg/kg/injection, schedule: Q01DX009 (ip), vehicle: saline 120 % of control | [9] 105 % of control | [10] 100 % of control

Cc1ccc(C(O)(CS(C)=O)c2ccco2)cc1 (configuration not stated)
inactive: dose: 50.0 mg/kg/injection, schedule: Q01DX009 (ip), vehicle: saline + alcohol 98 % of control | dose: 100.0 mg/kg/injection, schedule: Q01DX009 (ip), vehicle: saline + alcohol 90 % of control

CN(C)c1ccc(/C=C/c2ccnc3ccc(Br)cc23)cc1
inactive: [1] 109 % of control | [2] 114 % of control | [4] 116 % of control

OC(c1ccccc1)c1ccccc1
inactive: dose: 100.0 mg/kg/injection, schedule: Q01DX001 (ip), vehicle: other 95 % of control | dose: 200.0 mg/kg/injection, schedule: Q01DX001 (ip), vehicle: other 104 % of control | dose: 400.0 mg/kg/injection, schedule: Q01DX001 (ip), vehicle: other 100 % of control

O=C1Nc2ccccc2C12Nc1cccnc1N2 (configuration not stated)
inactive: dose: 50.0 mg/kg/injection, schedule: Q01DX001 (ip), vehicle: saline with Tween-80 91 % of control | dose: 100.0 mg/kg/injection, schedule: Q01DX001 (ip), vehicle: saline with Tween-80 87 % of control | dose: 200.0 mg/kg/injection, schedule: Q01DX001 (ip), vehicle: saline with Tween-80 91 % of control

O=[N+]([O-])c1ccccc1N=P(c1ccccc1)(c1ccccc1)c1ccccc1
inactive: dose: 50.0 mg/kg/injection, schedule: Q01DX009 (ip), vehicle: DMSO 109 % of control | dose: 50.0 mg/kg/injection, schedule: Q04DX003 (ip), vehicle: DMSO 100 % of control | dose: 100.0 mg/kg/injection, schedule: Q01DX009 (ip), vehicle: DMSO 104 % of control | dose: 100.0 mg/kg/injection, schedule: Q04DX003 (ip), vehicle: DMSO 104 % of control | dose: 200.0 mg/kg/injection, schedule: Q04DX003 (ip), vehicle: DMSO 90 % of control

CC(NC(=O)OCc1ccccc1)C(=O)NCCN(C)C (configuration not stated)
inactive: dose: 50.0 mg/kg/injection, schedule: Q01DX005 (ip), vehicle: saline 100 % of control | dose: 100.0 mg/kg/injection, schedule: Q01DX005 (ip), vehicle: saline 91 % of control | dose: 200.0 mg/kg/injection, schedule: Q01DX005 (ip), vehicle: saline 100 % of control

CCC[n+]1ccc(/C=N\NC(N)=S)c2ccccc21
inactive: [7] 94 % of control | [1] 103 % of control | [2] 122 % of control | [4] 122 % of control

CCCCC(=O)c1ccc(F)cc1
inactive: dose: 100.0 mg/kg/injection, schedule: Q01DX009 (ip), vehicle: Klucel (hydroxypropylcellulose) (HPC) 95 % of control | dose: 100.0 mg/kg/injection, schedule: Q04DX003 (ip), vehicle: Klucel (hydroxypropylcellulose) (HPC) 91 % of control | dose: 200.0 mg/kg/injection, schedule: Q01DX009 (ip), vehicle: Klucel (hydroxypropylcellulose) (HPC) 104 % of control | dose: 200.0 mg/kg/injection, schedule: Q04DX003 (ip), vehicle: Klucel (hydroxypropylcellulose) (HPC) 104 % of control | dose: 400.0 mg/kg/injection, schedule: Q01DX009 (ip), vehicle: Klucel (hydroxypropylcellulose) (HPC) 109 % of control | dose: 400.0 mg/kg/injection, schedule: Q04DX003 (ip), vehicle: Klucel (hydroxypropylcellulose) (HPC) 91 % of control

c1ccc(CSC2=NCCS2)cc1
inactive: [9] 113 % of control | [10] 104 % of control | dose: 400.0 mg/kg/injection, schedule: Q01DX009 (ip), vehicle: saline 113 % of control

Cc1ccc(C)c(C(C)NC2=NCCO2)c1 (configuration not stated)
inactive: [8] 90 % of control | [11] 90 % of control

BrCC(Br)CBr
inactive: [1] 104 % of control | [11] 100 % of control | [2] 122 % of control | [3] 100 % of control | [5] 104 % of control

CCCCCCC#CC(=O)OC
inactive: [7] 106 % of control | [1] 106 % of control | [2] 109 % of control | [4] 106 % of control

C1=CC2c3ccccc3C1c1ccccc12
inactive: dose: 100.0 mg/kg/injection, schedule: Q01DX007 (sc), vehicle: olive oil, sesame oil, peanut oil 91 % of control | dose: 100.0 mg/kg/injection, schedule: Q04DX003 (sc), vehicle: olive oil, sesame oil, peanut oil 100 % of control | dose: 200.0 mg/kg/injection, schedule: Q01DX007 (sc), vehicle: olive oil, sesame oil, peanut oil 104 % of control | dose: 200.0 mg/kg/injection, schedule: Q04DX003 (sc), vehicle: olive oil, sesame oil, peanut oil 90 % of control | dose: 400.0 mg/kg/injection, schedule: Q01DX007 (sc), vehicle: olive oil, sesame oil, peanut oil 95 % of control | dose: 400.0 mg/kg/injection, schedule: Q04DX003 (sc), vehicle: olive oil, sesame oil, peanut oil 110 % of control

CC(=O)C(C)(CCC#N)CCC#N
inactive: [11] 104 % of control | [3] 100 % of control

COc1cc2oc3ccccc3c(=O)c2cc1CSc1ccccc1N
inactive: [1] 123 % of control | [2] 88 % of control | [4] 90 % of control
